Reference: patent US20250057849A1, “ANTIVIRAL COMPOSITION COMPRISING NUCLEOSIDE ANALOGUES DERIVED FROM NUCLEIC ACID AND PHARMACEUTICALLY ACCEPTABLE SALT THEREOF” (CJ CheilJedang Corporation, priority 2021, published 2025)
Where two headings read alike, the source gives them in different places.

Assays:
MDCK cell line = test: Cytotoxicity, MDCK cell tests; conditions: cytotoxicity
BVDV = BVDV infection inhibition in MDBK cells (RT-qPCR); assay type: cell-based, Bovine Viral Diarrhea virus; conditions: for IC50: MDBK cells, 200 TCID50/well BVDV, after 4 days, read-out: BVDV infection inhibition concentration IC50
Experimental: The next day, BVDV of 200 TCID50/well and inosine, xanthosine and guanosine in the dialdehyde and acyclic diol forms were treated to the cells simultaneously, and after 4 days, using commercialized Viral gene (DNA/RNA) extraction kit (iNtRON, 101410754), RNA was isolated.
For the isolated RNA, using BVDV-specific primers (F-[…] , R-[…] ) and realtime RT-qPCR experimental method (94° C., 10 minutes 1 cycle, 94° C., 10 seconds, 53° C., 20 seconds, 72° C., 30 seconds 35 cycles), the antiviral efficacy of the materials was verified.

CPV = CPV infection inhibition in MDCK cells (qPCR); assay type: cell-based, Canine Parvovirus; conditions: for IC50: MDCK cells, 200 TCID50/well CPV, after 4 days, read-out: CPV infection inhibition concentration IC50 (Table 10)
Experimental: For the isolated DNA, using CPV-specific primers (F-[…] , R-[…] ) and realtime RT-qPCR experimental method (95° C., 5 minutes 1 cycle, 95° C., 10 seconds, 60° C., 30 seconds, 40 cycles), the antiviral efficacy of the materials was confirmed.

Marc-145 cell line = test: Cytotoxicity (WST-1 / DAPI staining), PRRSV test cells
BRV = BRV infection inhibition in MDBK cells (RT-qPCR); assay type: cell-based, Bovine Rotavirus; conditions: for IC50: MDBK cells, 200 TCID50/well BRV, after 4 days, read-out: BRV infection inhibition concentration IC50
Experimental: The next day, BRV of 200 TCID50/well and inosine, xanthosine and guanosine in the dialdehyde and acyclic diol forms were treated to the cells simultaneously, and after 4 days, using commercialized Viral gene (DNA/RNA) extraction kit (iNtRON, 101410754), RNA was isolated.
For the isolated RNA, using BRV-specific primers (F-[…] , R-[…] ) and realtime RT-qPCR experimental method (95° C., 10 minutes 1 cycle, 95° C., 15 seconds, 60° C., 15 seconds, 72° C., 20 seconds 40 cycles), the antiviral efficacy of the materials was confirmed.

[1] = test system: PRRSV (NA type, VR-2332 strain); test: PRRSV infection inhibition in Marc-145 cells (immunofluorescence staining); assay type: cell-based, Porcine Reproductive and Respiratory Syndrome virus; conditions: for IC50: Marc-145 cells, 100 TCID50/ml PRRSV, three days after treatment, read-out: PRRSV infection inhibition concentration IC50
[2] = mouse, in vivo
MDBK cell line = test: Cytotoxicity, MDBK cell tests; conditions: cytotoxicity
IBV = test: microbe, parasite or virus in culture; assay type: cell-based, Avian Infectious Bronchitis virus; conditions: for IC50: read-out: IBV infection inhibition concentration IC50
PRV = test: microbe, parasite or virus in culture; assay type: cell-based, Porcine Rotavirus; conditions: for IC50: read-out: PRV infection inhibition concentration IC50
PK15 cell line = test: Cytotoxicity, PK15 cell test; conditions: read-out: CC50 (Table 3, PCV2); cytotoxicity
[3] = test system: Influenza virus (2009 pandemic strain, CA04); conditions: for abnormal lesions due to fed materials (liver, stomach, spleen, kidney, heart, small intestine, large intestine): 250 mg/kg
NDV = test: microbe, parasite or virus in culture; assay type: cell-based, Avian Newcastle Disease virus; conditions: for IC50: read-out: NDV infection inhibition concentration IC50
PCV2 = PCV2 infection inhibition in PK15 cells (qPCR); assay type: cell-based, Porcine Circovirus Type 2; conditions: for IC50: PK15 cells, 200 TCID50/well PCV2, after 4 days, read-out: PCV2 infection inhibition concentration IC50
Experimental: For the isolated DNA, using PCV2-specific primers (F-[…] , R-[…] ) and realtime RT-qPCR experimental method (95° C., 30 seconds 1 cycle, 95° C., 20 seconds, 56° C., 60 seconds 40 cycles), the antiviral efficacy of the materials was verified.

[4] = test system: Swine Influenza virus (SIV); test: organism not typed; assay type: cell-based; conditions: for IC50: read-out: SIV infection inhibition concentration IC50
[5] = test system: PEDV (G1a type, SM98 strain); test: PEDV infection inhibition in Vero cells (PEDV detection kit on isolated RNA); assay type: cell-based, Porcine Epidemic Diarrhea virus; conditions: for IC50: Vero cells, 200 TCID50/ml PEDV, after 2 days, read-out: PEDV infection inhibition concentration IC50
Experimental: The next day, PEDV (G1a type, SM98 strain) of 200 TCID50/ml and inosine, xanthosine and guanosine in the dialdehyde and acyclic diol forms were treated to the cells simultaneously, and after 2 days, using commercialized Viral gene (DNA/RNA) extraction kit (iNtRON, 101410754), RNA was isolated. For the isolated RNA, using commercialized PEDV detection kit (Mediandiagnostics, NS-PED-31), the antiviral efficacy of the materials was verified.

[6] = Cytotoxicity, MDCK cell tests; conditions: dog, MDCK cells
[7] = Cytotoxicity (WST-1 / DAPI staining), PRRSV test cells; conditions: monkey, Marc-145 cells (monkey kidney)
in vitro = conditions: monkey
[8] = Cytotoxicity, MDBK cell tests; conditions: bovine, MDBK cells
[9] = Water solubility (stated); assay type: physicochemical
[10] = Cytotoxicity, PK15 cell test; conditions: pig, PK15 cells
PRRSV (NA strain) = test: PRRS virus challenge test using piglets
[11] = autopsy at 2 weeks, 50 mg/kg/day oral
[12] = mice, 100 MLD50 CA04, 250 mg/kg intragastric

With Nc1nc2c(ncn2[C@@H](C=O)O[C@@H](C=O)CO)c(=O)[nH]1 [Dialdehyde-guanosine, dialdehyde form of guanosine] as the compound, how does the CC50 (MDCK cell line; read-out: CC50 (Table 5, SIV)) read?
Its CC50 is > 6000 µM.

What about the CC50 (MDCK cell line; read-out: CC50 (Table 10, CPV)) of the same compound?
Its CC50 is > 6000 µM.

What about the IC50 (BVDV) of the same compound?
The IC50 was 2760 µM.

And the IC50 (CPV)?
Its IC50 is 2060 µM.

What about the CC50 (Marc-145 cell line; read-out: CC50 (Table 1, PRRSV), cytotoxicity, WST-1) of the same compound?
The CC50 was > 6000 µM.

And the “cytotoxicity by DAPI staining” value (Marc-145 cell line; up to 1000 μM)?
Its value is “no cytotoxicity was observed”.

What about the CC50 (Vero cell line) of the same compound?
Its CC50 is > 6000 µM.

What about the IC50 (BRV) of the same compound?
The IC50 was 88.3 µM.

And the IC50 [1]?
Its IC50 is 40 µM.

And the PRRSV infection inhibition ([1]; at 40 μM)?
Its PRRSV infection inhibition is 50%.

And the PRRSV infection inhibition ([1]; at 100 μM)?
The PRRSV infection inhibition was ≥ 90%.

What about the “time when 50% of the remaining materials was measured (based on AUC values)” value ([2]; ip, 50 mg/kg) of the same compound?
The value was “about 6 hours”.

And the “time when 50% of the remaining materials was measured (based on AUC values)” value ([2]; po, 250 mg/kg)?
The value was “about 9 hours”.

What about the CC50 (MDBK cell line; read-out: CC50 (Table 8, BVDV)) of the same compound?
The CC50 was > 6000 µM.

What about the CC50 (MDBK cell line; read-out: CC50 (Table 9, BRV)) of the same compound?
The CC50 was > 6000 µM.

And the IC50 (IBV; Vero cells, 200 TCID50/well IBV, after 4 days)?
Its IC50 is 275 µM.

And the IC50 (PRV)?
The IC50 was 177 µM.

What about the CC50 (PK15 cell line) of the same compound?
Its CC50 is > 6000 µM.

And the “amount of the virus remaining in the lung tissue (PCR)” value ([3]; mouse, in vivo)?
The value was “slightly lower”.

What about the “clinical symptoms after SIV challenge” value ([3]; mouse, in vivo) of the same compound?
Its value is “very mild symptoms”.

What about the “lung lesions at autopsy” value ([3]; mouse, in vivo) of the same compound?
The value was “mild lung lesions”.

What about the “survival rate on the 7th day” value ([3]; mouse, in vivo) of the same compound?
Its value is 80%.

And the “survival rate predicted on the 8th day based on all data up to the 7th day” value ([3]; mouse, in vivo)?
Its value is 60%.

And the “weight loss after SIV challenge” value ([3]; mouse, in vivo)?
The value was “very slight”.

And the “abnormal lesions due to fed materials (liver, stomach, spleen, kidney, heart, small intestine, large intestine)” value ([3]; mouse, in vivo)?
Its value is “not observed”.

And the IC50 (NDV; Vero cells, 200 TCID50/well NDV, after 3 days)?
The IC50 was 1120 µM.

And the IC50 (PCV2)?
Its IC50 is 96.6 µM.

And the IC50 ([4]; MDCK cells, 200 TCID50/well SIV, after 4 days)?
Its IC50 is 171 µM.

What about the IC50 [5] of the same compound?
Its IC50 is 157 µM.

With O=C[C@@H](CO)O[C@H](C=O)n1cnc2c(=O)[nH]c(=O)[nH]c21 [Dialdehyde-xanthosine, dialdehyde form of xanthosine] as the compound, how does the CC50 (MDCK cell line; read-out: CC50 (Table 10, CPV)) read?
The CC50 was > 10000 µM.

What about the CC50 [6] of the same compound?
The CC50 was > 10000 µM.

What about the IC50 (BVDV; Bovine viral diarrhea virus isolates and strains, 96 h) of the same compound?
The IC50 was 97.8 µM.

And the “SI (selectivity index), BVDV” value (BVDV; CC50/IC50)?
The value was >102.2.

What about the “SI (selectivity index), CPV” value (CPV; CC50/IC50) of the same compound?
Its value is >45.2.

What about the IC50 (CPV; Canine parvovirus, 96 h) of the same compound?
Its IC50 is 221 µM.

And the CC50 [7]?
Its CC50 is > 10000 µM.

And the CC50 (Vero cell line; monkey)?
The CC50 was > 10000 µM.

And the “SI (selectivity index), BRV” value (BRV; CC50/IC50)?
Its value is >198.1.

What about the IC50 (BRV; Rotavirus A, 96 h) of the same compound?
Its IC50 is 50.5 µM.

And the “SI (selectivity index), PRRSV” value ([1]; CC50/IC50)?
Its value is >133.3.

What about the IC50 [1] of the same compound?
The IC50 was 75 µM.

What about the “half-life tendency compared with guanosine in the dialdehyde form” value [2] of the same compound?
The value was “shorter”.

What about the “time when 50% of the remaining materials was measured (based on AUC values)” value ([2]; ip, 50 mg/kg) of the same compound?
The value was “about 6 hours”.

What about the “time when 50% of the remaining materials was measured (based on AUC values)” value ([2]; po, 250 mg/kg) of the same compound?
Its value is “about 6 hours”.

And the CC50 (in vitro)?
The CC50 was > 10000 µM.

And the CC50 [8]?
The CC50 was > 10000 µM.

And the CC50 (MDBK cell line; read-out: CC50 (Table 9, BRV))?
Its CC50 is > 10000 µM.

And the IC50 (IBV; Avian coronavirus, Vero, 96 h)?
The IC50 was 226 µM.

And the “SI (selectivity index), IBV” value (IBV; CC50/IC50)?
Its value is >44.3.

What about the water solubility [9] of the same compound?
Its water solubility is “slightly high”.

And the “SI (selectivity index), PRV” value (PRV; CC50/IC50)?
The value was >110.9.

And the IC50 (PRV; Rotavirus C, Vero, 72 h)?
Its IC50 is ≤ 100 µM.

What about the IC50 (PRV) of the same compound?
The IC50 was 90.2 µM.

And the CC50 [10]?
Its CC50 is > 10000 µM.

What about the “weight gain after PRRSV infection” value (PRRSV (NA strain); 50 mg/kg/day oral twice/day, 14 days) of the same compound?
Its value is “no delay in weight gain”.

And the “PRRS virus in lung by immunohistochemistry” value (PRRSV (NA strain); [11])?
The value was “only a very small amount of viruses were detected”.

And the “interstitial pneumonia lesions, visual observation of lung” value (PRRSV (NA strain); [11])?
The value was “relatively intact lung”.

What about the “virus titer in lung tissue” value (PRRSV (NA strain); [11]) of the same compound?
Its value is “reduced compared to the positive control group”.

And the “survival rate on the 7th day” value [3, 12]?
Its value is 100%.

And the “survival rate predicted on the 8th day based on all data up to the 7th day” value [3, 12]?
The value was 100%.

What about the “amount of the virus remaining in the lung tissue (PCR)” value ([3]; mouse, in vivo) of the same compound?
The value was “lowest virus titer”.

What about the “clinical symptoms after SIV challenge” value ([3]; mouse, in vivo) of the same compound?
The value was “very mild symptoms”.

What about the “lung lesions at autopsy” value ([3]; mouse, in vivo) of the same compound?
The value was “mild lung lesions”.

What about the “weight loss after SIV challenge” value ([3]; mouse, in vivo) of the same compound?
Its value is “very slight”.

And the “abnormal lesions due to fed materials (liver, stomach, spleen, kidney, heart, small intestine, large intestine)” value ([3]; mouse, in vivo)?
Its value is “not observed”.

And the “SI (selectivity index), NDV” value (NDV; CC50/IC50)?
Its value is >19.

What about the IC50 (NDV; avian paramyxovirus 1, Vero, 72 h) of the same compound?
The IC50 was 526 µM.

What about the “SI (selectivity index), PCV2” value (PCV2; CC50/IC50) of the same compound?
Its value is >23.

What about the IC50 (PCV2; Porcine circovirus 2, PK-15, 96 h) of the same compound?
Its IC50 is 436 µM.

And the “SI (selectivity index), SIV” value ([4]; CC50/IC50)?
Its value is >13.4.

And the IC50 ([4]; MDCK, 96 h)?
Its IC50 is 748 µM.

What about the “SI (selectivity index), PEDV” value ([5]; CC50/IC50) of the same compound?
The value was >25.1.

And the IC50 ([5]; Porcine epidemic diarrhea virus, 48 h)?
The IC50 was 398 µM.
